# Several values for one entry are separate records, joined by “and”; a condition that tells them apart may be missing. Equal values may be shown once.
# Columns and labels:
# Enterobacter aerogenes = conditions: Gram negative clinical isolate
# A. baumannii R16998 = conditions: Gram negative clinical isolate
# [1] = system: A. baumannii-amikacin^r, meropenem^r; conditions: Gram negative clinical isolate
# [2] = system: HIV-1 Protease resistant virus; assay type: cell-based; conditions: Table 4; read-out: EC50 Protease^Res
# Protocol: (§1) Inhibition of HIV-1 cell replication was tested using the cMAGI assay, which is based on the ability of HIV-1 TAT to transactivate the expression of an integrated β-galactosidase reporter gene driven by the HIV-LTR (B. Chackeria et al., J. Virol., (1997) 71, 3932; Collins et al., Nat. Med. (2000) 6, 475). The β-galactosidase reporter is modified to remain localized in the nucleus where it can be detected with the X-gal (5-bromo-4-chloro-3indoyl-β-D-galactopyranoside) substrate as an intense nuclear stain within a few days of infection.
# (§2) HIV-1 isolates were propagated by subculture in MT2 cells (Litovchick et al. (2001) supra). Aliquots of cell-free culture supernatants were used as viral inoculum. PAACs were dissolved in the RPMI 1640 medium. Cytotoxicity determinations were carried out in MT2 cells by trypan blue exclusion assay. Viral inhibition was determined by incubating MT2 or cMAGI HIV-1 reporter cells with 0.2-0.5 multiplicity of infection of HIV-1 wild type or resistant virus for 4 days at 37° C. in the presence or absence of various concentrations of pAACs. HIV-1 infection of cMAGI cells was determined by counting the number of HIV-1-infected cells (stained blue). The cytopathic effects of the viral infection of MT2 cells were also analyzed by microscopic assessment of syncytium formation.
# [3] = system: HIV-1 NeoR6 resistant virus; assay type: cell-based; conditions: read-out: EC50 NeoR6^Res; Table 4
# Protocol: as §1, §2
# [4] = system: HIV-1 AZT resistant virus; assay type: cell-based; conditions: Table 4; read-out: EC50 AZT^Res
# Protocol: as §1, §2
# HIV-1 Ba-L = assay type: cell-based; conditions: Table 4
# Protocol: as §1, §2
# [5] = system: HIV-1 clinical isolate Clade C; assay type: cell-based; conditions: Table 4; read-out: EC50 Clade C
# Protocol: as §1, §2
# [6] = system: HIV-1 clinical isolate Clade A; assay type: cell-based; conditions: Table 4; read-out: EC50 Clade A
# Protocol: as §1, §2
# [7] = system: Enterobacter cloacae W25161; conditions: Gram negative clinical isolate
# [8] = system: Escherichia coli ATCC 25922; conditions: Gram negative reference strain
# E. Coli-ESBL negative = conditions: Gram negative clinical isolate
# in vitro = assay type: cell-based; conditions: human; Table 4; tryphan blue exclusion assay for MT2 cells; read-out: Cytotoxicity
# How it was run: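 MT2 or cMAGI reporter cells infected with wild-type or resistant HIV-1 at 0.2-0.5 MOI for 4 days at 37° C with varying pAAC concentrations. Infection scored by counting blue-stained cMAGI cells and by microscopic syncytium assessment in MT2; cytotoxicity by trypan blue exclusion, as % dead cells.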
# S. aureus MSSA = conditions: Gram positive clinical isolate
# [9] = system: P. aeruginosa-gentamicin^s, meropenem^s; conditions: Gram negative clinical isolate
# [10] = system: Acinetobacter baumannii ATCC 19606; conditions: Gram negative reference strain
# HIV-1 IIIB = test: microbe, parasite or virus in culture; assay type: cell-based; conditions: Table 4; read-out: EC50 IIIB
# How it was run: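 cMAGI β-galactosidase reporter cells or MT2 cells infected at 0.2-0.5 MOI with wild-type or resistant HIV-1 and incubated 4 days at 37 °C with varying compound concentrations. Infection scored by counting X-gal-stained blue cMAGI cells; MT2 syncytium formation assessed microscopically, cytotoxicity by trypan blue exclusion.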
# E. Coli B3095141^r = conditions: clinical isolate, Table 7
# [11] = system: P. aeruginosa-gentamicin^r, meropenem^r; conditions: Gram negative clinical isolate
# [12] = system: K. pneumoniae-ESBL negative; conditions: Gram negative clinical isolate
# S. epidermidis MRSE = conditions: Gram positive clinical isolate
# S. aureus MRSA = conditions: Gram positive clinical isolate
# [13] = system: Pseudomonas aeruginosa ATCC 27853; conditions: Gram negative reference strain
# [14] = system: Proteus mirabilis ATCC 7002; conditions: Gram negative reference strain
# E. Coli-ESBL positive = conditions: Gram negative clinical isolate
# [15] = system: Enterococcus faecalis-vancomycin^r; conditions: clinical isolate, Table 7
# S. epidermidis MSSE = conditions: Gram positive clinical isolate
# [16] = system: A. baumannii-amikacin^s, meropenem^s; conditions: Gram negative clinical isolate
# [17] = system: K. pneumoniae-ESBL positive; conditions: Gram negative clinical isolate
# [18] = system: Klebsiella pneumoniae ATCC 13883; conditions: Gram negative reference strain
# [19] = system: Staphylococcus aureus ATCC 24213; conditions: Gram positive reference strain
# CXCR4 = target: T1, CXCR4 (Homo sapiens, UniProt P61073); test: Competition with 12G5 mAb binding to CXCR4 on MT2 cells (flow cytometry)
# T1 construct: incubated at 4° C. with anti-CXCR4 mAb, 12G5, conjugated to phycoerithrine (PE); endogenous in cells; host or cells: MT2 cells
# T1 sequence (P61073 whole entry): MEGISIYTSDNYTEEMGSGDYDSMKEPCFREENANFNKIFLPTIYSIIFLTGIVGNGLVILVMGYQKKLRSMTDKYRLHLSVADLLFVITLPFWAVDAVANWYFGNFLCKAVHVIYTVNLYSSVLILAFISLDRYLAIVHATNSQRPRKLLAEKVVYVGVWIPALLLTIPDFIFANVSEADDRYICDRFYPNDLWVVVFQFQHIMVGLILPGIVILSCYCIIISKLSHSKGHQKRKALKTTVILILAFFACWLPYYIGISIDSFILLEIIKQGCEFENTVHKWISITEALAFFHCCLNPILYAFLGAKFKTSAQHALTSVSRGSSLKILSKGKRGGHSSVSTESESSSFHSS
# How it was run: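 MT2 cells (0.5×10^6) were incubated for 30 min at 4 °C with PE-conjugated 12G5 anti-CXCR4 mAb, alone or with varying concentrations of pAACs or arginine peptides, in ice-cold PBS/0.1% azide. Cells were then fixed in 1% paraformaldehyde and analysed by flow cytometry (10,000 events), with an isotype control defining non-specific fluorescence.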
# Enterobacter cloacae = conditions: Gram negative clinical isolate
structure (smiles),measurement,setting,value
"CC(=O)N[C@H](CCCNC(=N)N)C(=O)N[C@H](CCCNC(=N)N)C(=O)N[C@H](CCCNC(=N)N)C(=O)N[C@H](CCCNC(=N)N)C(=O)N[C@H](CCCNC(=N)N)C(=O)N[C@H](CCCNC(=N)N)C(=O)N[C@H](CCCNC(=N)N)C(=O)N[C@H](CCCNC(=N)N)C(=O)N[C@H](CCCNC(=N)N)C(=O)NC[C@H]1O[C@H](O[C@H]2[C@H](O)[C@@H](O)[C@H](N)C[C@@H]2N)[C@H](N)[C@@H](O)[C@@H]1O [Compound 13, D-Arg-9-mer-neamine]",Minimum Inhibitory Concentration,Enterobacter aerogenes,16 mg/liter and 6.40 μM
same,Minimum Inhibitory Concentration,A. baumannii R16998,128.0 mg/liter and 51.41 μM
same,Minimum Inhibitory Concentration,[1],96.0 mg/liter and 38.55 μM
same,EC50,[2],2400 ± 400 nM
same,EC50,[3],3000 ± 1000 nM
same,EC50,[4],10400 ± 2700 nM
same,EC50,HIV-1 Ba-L,> 50000 nM
same,EC50,[5],2700 ± 500 nM
same,EC50,[6],5100 ± 2900 nM
same,Minimum Inhibitory Concentration,[7],24.0 mg/liter and 9.64 μM
same,Minimum Inhibitory Concentration,[8],6.0 mg/liter and 2.40 μM
same,Minimum Inhibitory Concentration,E. Coli-ESBL negative,6.0 mg/liter and 2.40 μM
same,CC50,in vitro,150000 nM
same,Minimum Inhibitory Concentration,S. aureus MSSA,1.5 mg/liter and 0.60 μM
same,Minimum Inhibitory Concentration,[9],48.0 mg/liter and 19.28 μM
same,Minimum Inhibitory Concentration,[10],16.0 mg/liter and 6.40 μM
same,EC50,HIV-1 IIIB,2300 ± 500 nM
same,Minimum Inhibitory Concentration,E. Coli B3095141^r,6.0 mg/liter and 2.40 μM
same,Minimum Inhibitory Concentration,[11],96.0 mg/liter and 38.55 μM
same,Minimum Inhibitory Concentration,[12],3.0 mg/liter and 1.20 μM
same,Minimum Inhibitory Concentration,S. epidermidis MRSE,0.5 mg/liter and 0.20 μM
same,Minimum Inhibitory Concentration,S. aureus MRSA,1.5 mg/liter and 0.60 μM
same,Minimum Inhibitory Concentration,[13],96.0 mg/liter and 38.55 μM
same,Minimum Inhibitory Concentration,[14],8.0 mg/liter and 3.20 μM
same,Minimum Inhibitory Concentration,E. Coli-ESBL positive,8.0 mg/liter and 3.20 μM
same,Minimum Inhibitory Concentration,[15],64.0 mg/liter and 25.70 μM
same,Minimum Inhibitory Concentration,S. epidermidis MSSE,0.5 mg/liter and 0.20 μM
same,Minimum Inhibitory Concentration,[16],12.0 mg/liter and 4.8 μM
same,Minimum Inhibitory Concentration,[17],3.0 mg/liter and 1.20 μM
same,Minimum Inhibitory Concentration,[18],1.5 mg/liter and 0.60 μM
same,Minimum Inhibitory Concentration,[19],2.0 mg/liter and 0.80 μM
same,inhibition at 2 µM,"CXCR4; read-out: % Inhibition of 12G5 mAb binding to CXCR4, 2 μM",67.3%
same,inhibition at 10 µM,"CXCR4; read-out: % Inhibition of 12G5 mAb binding to CXCR4, 10 μM",100%
same,Minimum Inhibitory Concentration,Enterobacter cloacae,8.0 mg/liter and 3.20 μM

# From patent publication US20060166867A1, “Novel conjugates of polysaccharides and uses thereof” (priority 2003, published 2006)
